± gives the expanded uncertainty stated by the source.
Conditions: Liquid, Closed cell (Static) method

## FC(F)(F)C1(F)OC1(F)F (centres undefined) [2,2,3-trifluoro-3-(trifluoromethyl)oxirane]
271.88 K
  vapor or sublimation pressure: 302.2 ± 1.5 kPa
295.53 K
  vapor or sublimation pressure: 649.9 ± 2.1 kPa
300.47 K
  vapor or sublimation pressure: 745.6 ± 2.2 kPa
303.11 K
  vapor or sublimation pressure: 798.5 ± 2.3 kPa
306.5 K
  vapor or sublimation pressure: 874.7 ± 2.5 kPa
310.48 K
  vapor or sublimation pressure: 970.1 ± 2.7 kPa
312.64 K
  vapor or sublimation pressure: 1024.9 ± 2.9 kPa
318.16 K
  vapor or sublimation pressure: 1175.3 ± 3.1 kPa

## FC(F)=C(F)C(F)(F)F [hexafluoropropene]
272.33 K
  vapor or sublimation pressure: 327.1 ± 1.4 kPa
279.64 K
  vapor or sublimation pressure: 420.7 ± 1.7 kPa
299.34 K
  vapor or sublimation pressure: 763.3 ± 2.2 kPa
302.24 K
  vapor or sublimation pressure: 825.7 ± 2.4 kPa
312.33 K
  vapor or sublimation pressure: 1077.3 ± 2.8 kPa
317.63 K
  vapor or sublimation pressure: 1232.1 ± 3.1 kPa
